Laboratory results as given in ChEMBL document CHEMBL5356975, “Brønsted Acid-Mediated Conversion of Naturally Abundant Lathyrane Diterpenes: Are Rare 10,11-seco-Lathyrane Diterpenes Artifacts?” (J Nat Prod, 2024).
Calls of active or inactive are those of the source. The calls are words filed in the database; no cut-off is given here.

Tests used:
BV-2 [1] = assay: Cytotoxicity against mouse BV-2 cells assessed as reduction in cell viability at 20 uM incubated for 24 hrs by MTT assay; type: toxicity, cell-based; details: bv-2, 24 h
BV-2 [2] = assay: Antineuroinflammatory activity in LPS induced mouse BV-2 cells assessed as inhibition of NO production pretreated for 4 hrs followed by LPS addition and measured after 24 hrs by griess reagent based assay; type: functional, cell-based
BV-2 [3] = assay: Antineuroinflammatory activity in LPS induced mouse BV-2 cells assessed as reduction in iNOS protein expression at 10 uM pretreated for 4 hrs followed by LPS addition and measured after 24 hrs by Western blot analysis; type: functional, cell-based; details: time 28.0 hrs
BV-2 [4] = assay: Antineuroinflammatory activity in LPS induced mouse BV-2 cells assessed as inhibition of NO production at 20 uM pretreated for 4 hrs followed by LPS addition and measured after 24 hrs by griess reagent based assay relative to control; type: functional; details: time 28 hrs
BV-2 [5] = assay: Antineuroinflammatory activity in LPS induced mouse BV-2 cells assessed as reduction in COX-2 protein expression at 10 uM pretreated for 4 hrs followed by LPS addition and measured after 24 hrs by Western blot analysis; type: functional, cell-based; details: time 28.0 hrs

How did the Activity (BV-2 [1]) turn out when C=C1CC[C@H](C(C)(C)OC(C)=O)/C=C/[C@@H](C)C(=O)[C@@]2(O)C[C@H](C)[C@H](O)[C@@H]2[C@H]1O was run?
Its Activity is “Non-Toxic”.

How did the Activity (BV-2 [1]) turn out when C=C1CC[C@H](C(C)(C)OCC)/C=C/[C@@H](C)C(=O)[C@@]2(O)C[C@H](C)[C@H](O)[C@@H]2[C@H]1O was run?
The Activity was “Non-Toxic”.

For O=c1c(O)c(-c2ccc(O)c(O)c2)oc2cc(O)cc(O)c12 [QUERCETIN], which IC50 (BV-2 [2]) is on record?
Its IC50 is 10 µM.

Which Activity (BV-2 [1]) does the source give for C=C1[C@@H](O)C[C@H](C(C)(C)OC(C)=O)/C=C/[C@@H](C)C(=O)[C@@]2(O)C[C@H](C)[C@H](O)[C@@H]2[C@H]1O here?
Its Activity is “Non-Toxic”.

With C=C1[C@@H](O)C[C@H](C(C)(C)OC)/C=C/[C@@H](C)C(=O)[C@@]2(O)C[C@H](C)[C@H](O)[C@@H]2[C@H]1O as the compound, how does the Activity (BV-2 [1]) read?
The Activity was “Non-Toxic”.

How did the Activity (BV-2 [1]) turn out when C=CC(=O)OC(C)(C)[C@@H]1/C=C/[C@@H](C)C(=O)[C@@]2(O)C[C@H](C)[C@H](O)[C@@H]2[C@@H](O)C(=C)CC1 was run?
Its Activity is “Non-Toxic”.

What about the Activity (BV-2 [3]) of the same compound?
Its Activity is “Active”.

And the inhibition at 20 µM (BV-2 [4])?
The inhibition at 20 µM was 73%.

What about the IC50 (BV-2 [2]) of the same compound?
Its IC50 is 6.2 µM.

What about the Activity (BV-2 [5]) of the same compound?
Its Activity is “Active”.

For C=C1CC[C@H](C(C)(C)OC(=O)COCC)/C=C/[C@@H](C)C(=O)[C@@]2(O)C[C@H](C)[C@H](O)[C@@H]2[C@H]1O, which Activity (BV-2 [1]) is on record?
Its Activity is “Non-Toxic”.

C=C1[C@@H](O)C[C@H](C(C)(C)OCC)/C=C/[C@@H](C)C(=O)[C@@]2(O)C[C@H](C)[C@H](O)[C@@H]2[C@H]1O was tested. Which Activity (BV-2 [1]) did it give?
The Activity was “Non-Toxic”.

C=C1[C@@H](O)C[C@H](C(C)(C)OCCCO)/C=C/[C@@H](C)C(=O)[C@@]2(O)C[C@H](C)[C@H](O)[C@@H]2[C@H]1O was tested. Which Activity (BV-2 [1]) did it give?
Its Activity is “Non-Toxic”.

What about the inhibition at 20 µM (BV-2 [4]) of the same compound?
The inhibition at 20 µM was 56%.

And the IC50 (BV-2 [2])?
Its IC50 is 18 µM.

For C=CC(=O)OC(C)(C)[C@@H]1/C=C/[C@@H](C)C(=O)[C@@]2(O)C[C@H](C)[C@H](O)[C@@H]2[C@@H](O)C(=C)[C@@H](O)C1, which Activity (BV-2 [1]) is on record?
Its Activity is “Non-Toxic”.

What about the inhibition at 20 µM (BV-2 [4]) of the same compound?
The inhibition at 20 µM was 70%.

And the IC50 (BV-2 [2])?
The IC50 was 7.7 µM.

C=C1CC[C@H](C(C)(C)OC)/C=C/[C@@H](C)C(=O)[C@@]2(O)C[C@H](C)[C@H](O)[C@@H]2[C@H]1O was tested. Which Activity (BV-2 [1]) did it give?
The Activity was “Non-Toxic”.

How did the Activity (BV-2 [1]) turn out when C=C1[C@@H](O)C[C@H](C(C)(C)OC(=O)CC)/C=C/[C@@H](C)C(=O)[C@@]2(O)C[C@H](C)[C@H](O)[C@@H]2[C@H]1O was run?
The Activity was “Non-Toxic”.

How did the Activity (BV-2 [1]) turn out when C=C1[C@@H](O)C[C@H](C(C)(C)OC(=O)COCC)/C=C/[C@@H](C)C(=O)[C@@]2(O)C[C@H](C)[C@H](O)[C@@H]2[C@H]1O was run?
The Activity was “Non-Toxic”.

What does the source list for C=C1CC[C@H](C(C)(C)OCCCO)/C=C/[C@@H](C)C(=O)[C@@]2(O)C[C@H](C)[C@H](O)[C@@H]2[C@H]1O?
Activity (BV-2 [1]): Non-Toxic; inhibition at 20 µM (BV-2 [4]): 63%; IC50 (BV-2 [2]): 13 µM

For C=C1CC[C@H](C(C)(C)OC(=O)CC)/C=C/[C@@H](C)C(=O)[C@@]2(O)C[C@H](C)[C@H](O)[C@@H]2[C@H]1O, which Activity (BV-2 [1]) is on record?
Its Activity is “Non-Toxic”.
